Where a name gives a salt, the structure may show the parent alone. Active and inactive are the calls of the source.
Test system: Streptococcus
Experiment: GAS UMAA2166 growth inhibition – luminescence, BacTiterGlo, counter-screen for streptokinase expression inhibitor project, dose response (AID 1915);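 further: potency for reduction of bacterial viability or growth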
Type: functional, organism-based
Settings: not given

Row | Structure (SMILES) | EC50
1 | CCOc1ccc(/C=N/NC(=S)NC2CC3C=CC2C3)cc1 (centres undefined) | > 150 µM (not active)
2 | Nc1nc(CN2CCN(c3ccc(F)cc3)CC2)nc(N2CCCc3ccccc32)n1 | > 150 µM (not active)
3 | COc1ccc2oc(C(=O)OCC(=O)NC3(C#N)CCCC3)c(C)c2c1 | > 150 µM (not active)
4 | COc1ccc(NC(C)C(=O)N/N=C/c2c(O)ccc3ccccc23)cc1 (centres undefined) | 1.25 µM (active)
5 | Clc1ccc(/C=C/c2nc(Cl)c(-c3ccc(Cl)cc3)c(Cl)n2)cc1 | > 150 µM (not active)
6 | Cn1c(CNC(=O)CNC(=O)c2ccc(F)cc2)cc(=O)n(C)c1=O | > 150 µM (not active)
7 | Cc1csc(Nc2ccc(Cl)cc2)[n+]1-c1ccc(Cl)cc1 | > 150 µM (not active)

Target: Cytochrome P450 2C19 (Homo sapiens, UniProt P33261)
Experiment: Cytochrome panel assay with activity outcomes. Panel member name: p450-cyp2c19 Compounds with AC50 equal or less than 10 uM are considered active
Type: functional
Settings: read-out: AC50

Sequence of Cytochrome P450 2C19 (P33261 whole entry): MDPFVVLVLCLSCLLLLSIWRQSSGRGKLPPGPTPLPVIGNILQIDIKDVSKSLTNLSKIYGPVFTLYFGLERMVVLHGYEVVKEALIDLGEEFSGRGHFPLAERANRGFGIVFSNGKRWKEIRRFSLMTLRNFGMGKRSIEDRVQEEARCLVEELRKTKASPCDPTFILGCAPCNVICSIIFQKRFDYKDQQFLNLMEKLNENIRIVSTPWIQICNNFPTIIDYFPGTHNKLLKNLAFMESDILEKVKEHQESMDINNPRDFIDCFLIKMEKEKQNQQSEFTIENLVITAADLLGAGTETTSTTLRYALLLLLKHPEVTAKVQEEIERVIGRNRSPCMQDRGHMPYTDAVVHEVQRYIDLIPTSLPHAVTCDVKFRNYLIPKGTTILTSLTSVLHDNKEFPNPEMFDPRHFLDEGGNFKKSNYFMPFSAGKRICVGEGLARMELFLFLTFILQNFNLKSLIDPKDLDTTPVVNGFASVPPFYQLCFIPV

Row | Structure (SMILES) | AC50
8 | COCCNC(=O)/C(C#N)=C/c1ccc(-c2ccc(OC)cc2[N+](=O)[O-])o1 | 3.55 µM (inconclusive)

Test system: Streptococcus sp. 'group A'
Experiment: Streptococcus pyogenes SK(-)GAS viability under kanamycin – luminescence, BacTiterGlo, confirmation, counter-screen for streptokinase expression inhibitor project, dose response (AID 1900)
Type: functional, organism-based
Settings: not given

Row | Structure (SMILES) | EC50
9 | CCOc1ccc(/C=N/NC(=S)NC2CC3C=CC2C3)cc1 (centres undefined) | > 150 µM (not active)
10 | Nc1nc(CN2CCN(c3ccc(F)cc3)CC2)nc(N2CCCc3ccccc32)n1 | 2.01 µM (active)
11 | COc1ccc2oc(C(=O)OCC(=O)NC3(C#N)CCCC3)c(C)c2c1 | 57.9 µM (active)
12 | COc1ccc(NC(C)C(=O)N/N=C/c2c(O)ccc3ccccc23)cc1 (centres undefined) | 1.95 µM (active)
13 | Clc1ccc(/C=C/c2nc(Cl)c(-c3ccc(Cl)cc3)c(Cl)n2)cc1 | 33 µM (active)
14 | Cn1c(CNC(=O)CNC(=O)c2ccc(F)cc2)cc(=O)n(C)c1=O | > 150 µM (not active)
15 | Cc1csc(Nc2ccc(Cl)cc2)[n+]1-c1ccc(Cl)cc1 | 12.9 µM (active)

Target: Cytochrome P450 3A4 (Homo sapiens, UniProt P08684);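 further: CYP3A4 tested as one member of a cytochrome P450 panel screen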
Settings: not given

Sequence of Cytochrome P450 3A4 (P08684 whole entry): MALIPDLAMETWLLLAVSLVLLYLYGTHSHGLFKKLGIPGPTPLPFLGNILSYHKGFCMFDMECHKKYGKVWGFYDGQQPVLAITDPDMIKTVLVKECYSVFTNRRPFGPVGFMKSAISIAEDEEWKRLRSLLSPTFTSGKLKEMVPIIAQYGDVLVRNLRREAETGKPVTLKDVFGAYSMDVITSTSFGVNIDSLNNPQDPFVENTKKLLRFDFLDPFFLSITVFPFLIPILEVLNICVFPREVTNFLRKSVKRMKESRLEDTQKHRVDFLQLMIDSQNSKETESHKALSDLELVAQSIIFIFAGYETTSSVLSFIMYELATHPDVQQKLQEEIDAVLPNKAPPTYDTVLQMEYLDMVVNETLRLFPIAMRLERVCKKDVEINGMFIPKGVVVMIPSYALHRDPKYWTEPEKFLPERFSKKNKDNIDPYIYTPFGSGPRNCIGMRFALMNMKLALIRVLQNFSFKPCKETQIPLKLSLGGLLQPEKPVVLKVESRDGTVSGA

Row | Structure (SMILES) | AC50
16 | COCCNC(=O)/C(C#N)=C/c1ccc(-c2ccc(OC)cc2[N+](=O)[O-])o1 | 3.16 µM (inconclusive)

Target: Cytochrome P450 2C9 (Homo sapiens, UniProt P11712)
Settings: not given

Sequence of Cytochrome P450 2C9 (P11712 whole entry): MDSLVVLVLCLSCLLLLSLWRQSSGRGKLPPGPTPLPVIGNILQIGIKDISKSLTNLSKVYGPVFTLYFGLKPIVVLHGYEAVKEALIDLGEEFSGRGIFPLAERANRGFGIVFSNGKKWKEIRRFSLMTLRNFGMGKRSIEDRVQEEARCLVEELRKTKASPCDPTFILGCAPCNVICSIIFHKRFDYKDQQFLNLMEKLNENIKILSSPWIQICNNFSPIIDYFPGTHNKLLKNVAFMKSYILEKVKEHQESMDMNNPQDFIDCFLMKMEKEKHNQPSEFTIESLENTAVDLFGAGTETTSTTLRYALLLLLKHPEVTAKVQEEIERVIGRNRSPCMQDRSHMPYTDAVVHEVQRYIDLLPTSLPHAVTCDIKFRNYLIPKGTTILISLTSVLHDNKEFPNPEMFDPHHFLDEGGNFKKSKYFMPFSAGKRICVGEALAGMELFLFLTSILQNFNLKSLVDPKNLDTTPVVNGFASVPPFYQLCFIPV

Row | Structure (SMILES) | AC50
17 | COCCNC(=O)/C(C#N)=C/c1ccc(-c2ccc(OC)cc2[N+](=O)[O-])o1 | 39.8 µM (inconclusive)

Target: T1, Heat shock factor protein 1 (Mus musculus, UniProt P38532)
T1 sequence (P38532 whole entry): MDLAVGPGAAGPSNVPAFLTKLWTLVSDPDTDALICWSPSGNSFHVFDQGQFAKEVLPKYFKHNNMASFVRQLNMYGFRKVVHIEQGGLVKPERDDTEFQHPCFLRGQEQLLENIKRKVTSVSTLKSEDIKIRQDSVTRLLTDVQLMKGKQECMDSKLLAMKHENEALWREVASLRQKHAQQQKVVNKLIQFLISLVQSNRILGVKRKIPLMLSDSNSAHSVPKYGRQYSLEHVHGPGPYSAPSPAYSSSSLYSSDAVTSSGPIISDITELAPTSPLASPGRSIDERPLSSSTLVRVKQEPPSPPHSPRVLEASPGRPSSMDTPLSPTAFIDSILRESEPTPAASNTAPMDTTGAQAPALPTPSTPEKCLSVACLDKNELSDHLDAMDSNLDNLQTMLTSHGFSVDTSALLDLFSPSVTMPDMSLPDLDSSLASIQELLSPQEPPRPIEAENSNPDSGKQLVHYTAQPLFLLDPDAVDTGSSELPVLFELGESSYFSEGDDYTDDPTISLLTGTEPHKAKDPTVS
Experiment: decrease of HSF1-responsive luciferase luminescence – cell-based, NIH3T3, dose retest, confirmation (AID 2382);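 further: NIH3T3 fibroblasts with HSF1-driven luciferase reporter stressed by proteasome inhibitor MG132; luminescence from HSF1-driven luciferase expression after 8 hours of MG132 stress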
Type: functional
Settings: not given

Row | Structure (SMILES) | EC50
18 | c1cncc(-c2nnc(SCc3nc4ccccc4[nH]3)o2)c1 | 126 µM (active)
19 | Cn1c(=O)c2ccccc2n(Cc2ccccc2Cl)c1=O | > 195 µM (not active)
20 | Cc1ccsc1/C=C/C1=NCCCN1C [MORANTEL TARTRATE] | > 195 µM (not active)
21 | Cc1ccc(C(=O)Nc2ccc(C(=O)O)cc2NC(=O)c2ccc(C)cc2)cc1 | 14.7 µM (active)
22 | COc1ccc(C2NS(=O)(=O)N=C2N)cc1 (centres undefined) | > 195 µM (not active)
23 | O=C(OCCN1CCN(c2ncc(C(F)(F)F)cc2Cl)CC1)c1ccc(Cl)cc1 | > 195 µM (not active)
24 | Cc1ccc(NC(=O)[C@@H](C)NC(=O)[C@@H]2Cc3ccccc3CN2)cc1 | > 195 µM (not active)
25 | CC(C)(C)Cc1nnc(NS(=O)(=O)c2ccc(F)cc2)s1 | > 195 µM (not active)
26 | COc1ccc(NC(=O)CCN2CCN(S(=O)(=O)c3ccc(OC)cc3)CC2)cc1 | > 195 µM (not active)
27 | CCOC(=O)C1CCN(C(=O)COc2cc(C)c(Br)cc2C)CC1 | > 195 µM (not active)
28 | NC(=O)Cc1ccc(C(=O)c2ccc(Cl)cc2)s1 | > 195 µM (not active)
29 | CCCN1CCC(=O)N([C@H](CSc2ccccc2)Cc2ccccc2)CC1 | > 195 µM (not active)
30 | COC(=O)C1=C(C)N(CCCC(=O)O)C(=O)NC1c1ccc(C#N)cc1 (centres undefined) | > 195 µM (not active)
31 | N#CCCn1nnc(-c2ccccc2F)n1 | > 195 µM (not active)

Test system: not listed separately
Experiment: Luminescence Cell-Based Dose Retest to Confirm Inhibitors of Cancer Stem Cells. [Related pubchem assays (depositor defined):AID2717, AID2721]
Type: functional
Settings: Homo sapiens

Row | Structure (SMILES) | AC50
32 | c1ccc(-c2nnc3sc(CN4CCc5ccccc54)cn23)cc1 | 7.58 µM (active)
33 | Cc1cc(N/N=C/c2ccccc2Cl)nc(NCc2ccccc2)n1 | 3.88 µM (active)
34 | Cc1ccc(C(C)C)c(OCc2ccc(C(=O)N/N=C/c3ccc(O)c(O)c3)cc2)c1 | 3.23 µM (active)

Test system: not listed separately
Experiment: viability of uninfected HEp-2 cells – cell-based, HTS, cytotoxicity control for RSV inhibitor project, dose response (AID 2410)
Type: functional
Settings: human respiratory syncytial virus

Row | Structure (SMILES) | CC50
35 | Cc1ccc(NC(=O)CC2C(=O)N(Cc3ccccc3)C(=S)N2NC(=O)c2ccccc2)c(C)c1 (centres undefined) | > 50 µM (active)
36 | N#C/C(=C\c1c(Cl)cccc1Cl)c1nc2ccccc2[nH]1 | 20.3 µM (active)
37 | C=CCn1/c(=N/C(=O)C2COc3ccccc3O2)sc2cccc(OC)c21 (centres undefined) | 18.4 µM (active)
38 | COc1nc(-c2ccc(C)cc2)ccc1-c1noc(-c2cccnc2)n1 | 31.1 µM (active)
39 | CCOC(=O)c1cc(-c2ccccc2)sc1NC(=O)C(C)OC(=O)c1ccncc1 (centres undefined) | 47.6 µM (active)
40 | O=C(c1ccc(F)cc1)N1CCN(c2cc(N3CCCCC3)c(F)cc2[N+](=O)[O-])CC1 | 16.6 µM (active)
41 | CC(C)N(C(=O)CSc1nc(COc2ccccc2)nc2ccccc12)C(C)C | 23.7 µM (active)
42 | CCOC(=O)c1sc(NC(=O)c2ccc(S(=O)(=O)N3CCCCCC3)cc2)nc1-c1ccccc1 | 7.07 µM (active)
43 | CCO[C@H]1OC(C(=O)NCc2ccccc2)=C[C@@H](c2ccc(Br)cc2)[C@@H]1CCCO | 22 µM (active)
44 | CCc1nc(NCCO)c(C#N)c2c1CCCC2 | 30.6 µM (active)
45 | Cc1ccccc1OCC(=O)NCCS(=O)(=O)N1CCN(c2ccc(F)cc2)CC1 | 38.1 µM (active)

Target: T2, Rac GTPase-activating protein 1 (Homo sapiens, UniProt Q9H0H5)
T2 sequence (Q9H0H5 whole entry): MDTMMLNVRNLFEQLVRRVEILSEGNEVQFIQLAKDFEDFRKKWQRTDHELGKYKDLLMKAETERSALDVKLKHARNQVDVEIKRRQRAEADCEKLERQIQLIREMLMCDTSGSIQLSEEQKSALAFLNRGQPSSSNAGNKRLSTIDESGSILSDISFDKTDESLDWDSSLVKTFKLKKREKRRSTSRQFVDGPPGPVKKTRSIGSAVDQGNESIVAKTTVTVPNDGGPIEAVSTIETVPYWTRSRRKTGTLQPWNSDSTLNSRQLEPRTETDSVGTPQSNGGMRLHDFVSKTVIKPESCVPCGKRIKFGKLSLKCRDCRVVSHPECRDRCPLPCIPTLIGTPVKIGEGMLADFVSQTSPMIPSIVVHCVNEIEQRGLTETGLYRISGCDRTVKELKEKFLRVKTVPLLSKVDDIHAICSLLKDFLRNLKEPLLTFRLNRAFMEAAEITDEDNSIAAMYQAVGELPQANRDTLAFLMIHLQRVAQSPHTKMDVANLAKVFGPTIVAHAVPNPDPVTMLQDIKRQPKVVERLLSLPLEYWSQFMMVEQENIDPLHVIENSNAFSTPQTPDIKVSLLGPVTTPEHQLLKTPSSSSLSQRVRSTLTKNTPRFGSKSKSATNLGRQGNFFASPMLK
Experiment: blockers of MgcRacGAP-driven Rac1 GTP hydrolysis – biochemical, ADP Hunter fluorescence, primary and confirmatory, confirmation (AID 624330)
Type: functional
Settings: not given

Row | Structure (SMILES) | IC50
46 | Cc1cccc(N2CCC(/N=C/N(C)C)=N2)c1 | 29.2 µM (active)
47 | CC(=O)NC(Cc1ccccc1)C(=O)Oc1ccc2ccccc2c1 (centres undefined) | 39.7 µM (active)
48 | CC(C)c1ccc(NC(=O)CNCC(c2ccccc2)N(C)C)cc1 (centres undefined) | 109 µM (active)
49 | O=C(CNC1CC1)Nc1cc(C(F)(F)F)ccc1Cl | 123 µM (active)
50 | Cn1c(=O)[nH]c(=O)c2c1[nH]c(=S)n2Cc1ccc(Cl)cc1 | 31.7 µM (active)
51 | COc1cc(/C(C)=N/N2CCN(c3ccccc3OC)CC2)ccc1O | 208 µM (active)
52 | COc1cc(OC)c(C(=O)Nc2ccc(N(C)C)cc2)cc1OC | 22.1 µM (active)

Target: T3, Cytochrome P450 1A2 (Homo sapiens, UniProt P05177);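 further: PubChem cytochrome P450 panel assay, CYP1A2 panel member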
T3 sequence (P05177 whole entry): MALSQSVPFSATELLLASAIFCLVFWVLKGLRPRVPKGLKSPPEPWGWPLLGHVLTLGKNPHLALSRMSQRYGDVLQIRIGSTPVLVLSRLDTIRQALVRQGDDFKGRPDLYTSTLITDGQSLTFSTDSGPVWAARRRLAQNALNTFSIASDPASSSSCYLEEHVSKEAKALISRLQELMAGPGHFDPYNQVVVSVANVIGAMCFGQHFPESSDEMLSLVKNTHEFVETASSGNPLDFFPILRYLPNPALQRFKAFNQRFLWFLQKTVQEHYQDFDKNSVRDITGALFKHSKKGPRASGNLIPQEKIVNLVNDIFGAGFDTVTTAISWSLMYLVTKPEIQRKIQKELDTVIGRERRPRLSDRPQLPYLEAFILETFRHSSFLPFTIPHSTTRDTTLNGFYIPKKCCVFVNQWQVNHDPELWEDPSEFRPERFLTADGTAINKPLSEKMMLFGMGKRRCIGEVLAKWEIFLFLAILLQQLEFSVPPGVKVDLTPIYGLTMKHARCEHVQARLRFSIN
Settings: not given

Row | Structure (SMILES) | AC50
53 | COCCNC(=O)/C(C#N)=C/c1ccc(-c2ccc(OC)cc2[N+](=O)[O-])o1 | 2 µM (inconclusive)

Target: T4, Streptokinase A (Streptococcus pyogenes serotype M1, UniProt P10520)
T4 sequence (P10520 whole entry): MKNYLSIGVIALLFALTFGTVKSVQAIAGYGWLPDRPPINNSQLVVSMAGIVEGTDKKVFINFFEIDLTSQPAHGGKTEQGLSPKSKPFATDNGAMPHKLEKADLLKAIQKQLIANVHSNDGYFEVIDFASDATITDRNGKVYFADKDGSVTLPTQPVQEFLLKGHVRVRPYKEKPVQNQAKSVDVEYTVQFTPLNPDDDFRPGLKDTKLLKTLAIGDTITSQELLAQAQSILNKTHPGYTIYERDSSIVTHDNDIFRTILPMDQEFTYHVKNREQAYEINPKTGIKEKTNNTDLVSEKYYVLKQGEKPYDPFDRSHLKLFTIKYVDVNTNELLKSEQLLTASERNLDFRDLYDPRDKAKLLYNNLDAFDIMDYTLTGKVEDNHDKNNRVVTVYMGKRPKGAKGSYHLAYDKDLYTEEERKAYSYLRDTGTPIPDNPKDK
Experiment: viability-normalized secreted streptokinase activity reduction – plasminogen activation absorbance, OD405, dose response (AID 1914);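 further: secreted streptokinase activity via plasminogen activation per viability signal from cell pellet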
Type: functional, Streptococcus pyogenes M1 GAS
Settings: not given

Row | Structure (SMILES) | EC50
54 | CCOc1ccc(/C=N/NC(=S)NC2CC3C=CC2C3)cc1 (centres undefined) | > 150 µM (not active)
55 | Nc1nc(CN2CCN(c3ccc(F)cc3)CC2)nc(N2CCCc3ccccc32)n1 | > 150 µM (not active)
56 | COc1ccc2oc(C(=O)OCC(=O)NC3(C#N)CCCC3)c(C)c2c1 | > 150 µM (not active)
57 | Clc1ccc(/C=C/c2nc(Cl)c(-c3ccc(Cl)cc3)c(Cl)n2)cc1 | 10 µM (active)
58 | Cn1c(CNC(=O)CNC(=O)c2ccc(F)cc2)cc(=O)n(C)c1=O | > 150 µM (not active)
59 | Cc1csc(Nc2ccc(Cl)cc2)[n+]1-c1ccc(Cl)cc1 | 29.9 µM (active)

— ChEMBL document CHEMBL1201862, “PubChem BioAssay data set” (2004)
